Patent US20250057158A1 (priority 2021, published 2025)
Like-named read-outs stand apart in the source and are kept apart here.

Tests used:
[1] = tested on: Pseudomonas syringae pv. tomato DC3000 (Pst); assay type: in vivo; settings: Arabidopsis thaliana; for disease severity (score 0 to 5): water-treated group 4.6; for induced resistance against Pst (disease severity, statistical significance vs water-treated control): 50 μl of 0.1% amino acid to roots, Pst 7 days later, severity 7 days after pathogen
[2] = tested on: Pathogenesis-related protein (PR) 1a promoter GUS fusion construct; experiment: Expression of disease resistance marker gene PR1a through GUS activity; assay type: in vivo, Arabidopsis thaliana; settings: roots treated with 50 μl; observed 1 Dai to 4 Dai after pathogen treatment
[3] = tested on: Phytophthora sojae; experiment: Pot experiment, soybean Phytophthora stem and root rot (diseased area, control value); assay type: in vivo; settings: diseased area after 3 days, vs untreated group
[4] = tested on: Pseudomonas syringae pv. lachrymans; experiment: Pot experiment, cucumber bacterial leaf blight (diseased area, control value); assay type: in vivo; settings: 5 ml spray (amino acid 0.1%) one day before inoculation, diseased area after 3 days, vs untreated group
[5] = tested on: Pectobacterium carotovorum pv. carotovora; experiment: Pot experiment, lettuce bacterial soft rot (diseased area, control value); assay type: in vivo; settings: diseased area after 1 day, vs untreated group
[6] = tested on: Magnaporthe oryzae KI-1113a; assay type: in vivo; settings: pot; 5 ml spray (amino acid 0.1%) one day before inoculation; diseased area after 24 h dark plus 4 days; vs untreated group
[7] = tested on: Botrytis cinerea; experiment: Pot experiment, tomato gray mold (diseased area, control value); assay type: in vivo; settings: diseased area after 3 days, vs untreated group
[8] = tested on: soybeans; experiment: Growth promoting ability, shoot weight of soybeans; assay type: in vivo, soybean; settings: untreated group 8.6 g; for shoot weight, soybeans (average): root zone treatment twice at one week intervals (valine 5 ml, 0.1%), two weeks after last treatment
Description: (§1) The growth of soybeans and cucumbers was observed by treatment with valine. One week after sowing in pots, root zone treatment of each plant was performed using 5 ml of valine at a concentration of 0.1%. The root zone treatment with valine was performed twice at one week intervals. Two weeks after the last treatment, a shoot of each treatment group was cut and weighed.

[9] = tested on: cucumbers; experiment: Growth promoting ability, shoot weight of cucumbers; assay type: in vivo, cucumber; settings: untreated group 31 g; for shoot weight, cucumbers (average): root zone treatment twice at one week intervals (valine 5 ml, 0.1%), two weeks after last treatment
Description: as §1

[10] = tested on: lettuce bacterial soft rot (Pectobacterium carotovorum pv. carotovora); experiment: Optimal conditions, two treatments: lettuce bacterial soft rot (disease severity, control value); settings: treatment 7 days and 1 day before pathogen; for control value, lettuce bacterial soft rot: from disease severity, vs untreated group; for disease severity (score 0 to 5), lettuce bacterial soft rot: 48 hours after pathogen, water control group 4.2
Description: (§2) A total of 3 crops (soybean, cucumber, lettuce) were tested against 3 pathogens (soybean Phytophthora stem and root rot, cucumber bacterial leaf blight, lettuce bacterial soft rot), and each plant was prepared in the same manner as Example 5.
(§3) From the disease severity investigated in this manner, a control value was calculated according to the following Equation.

[11] = tested on: soybean Phytophthora stem and root rot (Phytophthora sojae); settings: treatment 7 days and 1 day before pathogen; for control value, soybean Phytophthora stem and root rot: from disease severity, vs untreated group; for disease severity (score 0 to 5), soybean Phytophthora stem and root rot: 7 days after pathogen, water control group 4.1
Description: as §2, §3

[12] = tested on: Pst pathogen; assay type: in vivo, Pseudomonas syringae pv. tomato; settings: Arabidopsis thaliana; 0.1% amino acid; day 6 after Pst
[13] = tested on: Pcc pathogen; settings: Arabidopsis thaliana; 0.1% amino acid; day 3 after Pcc
[14] = tested on: Soybean Phytophthora stem and root rot; settings: 7 days after disease treatment, NDVI 0.7 or more = healthy, untreated group 26%
Description: The induced resistance against Soybean Phytophthora stem and root rot was investigated using a hyperspectral camera and a visible light band camera. Plant preparation was carried out in the same manner as in Example 6, and 7 days after disease treatment, leaves were picked from the same position in each treatment group, and hyperspectral photographs were taken.
It was quantified by the normalized difference vegetation index (NDVI). The degree of diseased leaves in the entire leaf area was indicated from 0.1 to 0.9 and the number of the corresponding pixels was used. Generally, when the number is 0.7 or more, it is considered a healthy leaf.

[15] = valine 5 ml, 0.1%, root zone, twice

Structure (SMILES) | PR1a expression (GUS activity in leaf area) [2] | control value, soybean Phytophthora stem and root rot [3] | control value, cucumber bacterial leaf blight [4] | control value, lettuce bacterial soft rot [5] | control value, rice blast [6] | control value, lettuce bacterial soft rot [10] | control value, soybean Phytophthora stem and root rot [11] | induced resistance against Pst (disease severity, statistical significance vs water-treated control) [1] | number of Pst pathogens vs untreated control group [12] | number of Pcc pathogen vs untreated control group [13] | number of Pcc pathogens vs BTH-treated group [13] | other results
CSC(=O)c1cccc2nnsc12 [BTH, benzo(1,2,3)-thiadiazole-7-carbothioic acid S-methyl ester, reference compound] | GUS was expressed in the leaf area | 10% | 9% | 10% | 9% | 17% | 46% | – | – | – | – | disease severity (score 0 to 5) ([1]; Pst, 1 mM BTH): 3.7; control value, tomato gray mold [7]: 20%; shoot weight, soybeans (average) [8]: 7.3 g; shoot weight, cucumbers (average) [9]: 26 g
N[C@@H](CC(=O)O)C(=O)O [aspartic acid] | – | – | – | – | – | – | – | induced the resistance against Pst | – | – | – | –
N[C@@H](CCC(=O)O)C(=O)O [glutamic acid] | – | – | – | – | – | – | – | induced the resistance against Pst | – | – | – | –
N[C@@H](Cc1c[nH]cn1)C(=O)O [histidine] | – | – | – | – | – | – | – | induced the resistance against Pst | – | – | – | –
CC[C@H](C)[C@H](N)C(=O)O [isoleucine] | GUS was expressed in the leaf area | 10% | 12% | 8% | 16% | 29% | 44% | induced the resistance against Pst | statistically significant reduction in the number of pathogens | reduction in the number of Pcc pathogen | reduction in the number of pathogens, as compared to the BTH-treated group | disease severity (score 0 to 5), lettuce bacterial soft rot [10]: 3; healthy leaves (NDVI, hyperspectral camera) [14]: 46%; disease severity (score 0 to 5), soybean Phytophthora stem and root rot [11]: 2.3
CC(C)C[C@H](N)C(=O)O [leucine] | – | – | – | – | – | – | – | induced the resistance against Pst | – | – | – | –
O=C(O)[C@@H]1CCCN1 [proline] | GUS was expressed in the leaf area | – | – | – | – | – | – | induced the resistance against Pst | statistically significant reduction in the number of pathogens | reduction in the number of Pcc pathogen | reduction in the number of pathogens, as compared to the BTH-treated group | –
CC(C)[C@H](N)C(=O)O [valine] | GUS was expressed in the leaf area | 15% | 17% | 13% | 13% | 48% | 73% | induced the resistance against Pst | statistically significant reduction in the number of pathogens | reduction in the number of Pcc pathogen | reduction in the number of pathogens, as compared to the BTH-treated group | disease severity (score 0 to 5) ([1]; Pst, 0.1% (0.95 mM) valine): 2.5; disease severity (score 0 to 5) ([1]; Pst, 0.5% valine): 2.4; overall disease severity in valine-treated groups ([1]; Pst, valine 0.5%, 0.1%, 0.05%, 0.01%, 0.005% and 0.001%, vs water-treated group): overall disease severity decreased; shoot weight, soybeans (average) [8]: 11 g; shoot weight heavier than untreated group, soybeans [8, 15]: 2.4 g; shoot weight, cucumbers (average) [9]: 34 g; shoot weight heavier than untreated group, cucumbers [9, 15]: 3 g; disease severity (score 0 to 5), lettuce bacterial soft rot [10]: 2.2; healthy leaves (NDVI, hyperspectral camera) [14]: 60%; disease severity (score 0 to 5), soybean Phytophthora stem and root rot [11]: 1.1
